According to patent US10214546B2, “Btk inhibitors” (MERCK SHARP & DOHME CORP., priority 2014, dated 2019):
pIC50: −log10 of the molar value. Like-named read-outs stand apart in the source and are kept apart here.

How the values were obtained:
[1] = target: BTK enzyme (recombinant full-length BTK, hBTK) (Homo sapiens (Human), UniProt Q06187); assay: BTK enzymatic activity LANCE TR-FRET assay; assay type: biochemical; conditions: 50 pM hBTK, 25 μM ATP, 2 μM biotin-A5-peptide; compound range 1 μM to 0.017 nM; read-out: BTK binding IC50
Sequence of BTK enzyme (recombinant full-length BTK, hBTK) (Q06187 whole entry): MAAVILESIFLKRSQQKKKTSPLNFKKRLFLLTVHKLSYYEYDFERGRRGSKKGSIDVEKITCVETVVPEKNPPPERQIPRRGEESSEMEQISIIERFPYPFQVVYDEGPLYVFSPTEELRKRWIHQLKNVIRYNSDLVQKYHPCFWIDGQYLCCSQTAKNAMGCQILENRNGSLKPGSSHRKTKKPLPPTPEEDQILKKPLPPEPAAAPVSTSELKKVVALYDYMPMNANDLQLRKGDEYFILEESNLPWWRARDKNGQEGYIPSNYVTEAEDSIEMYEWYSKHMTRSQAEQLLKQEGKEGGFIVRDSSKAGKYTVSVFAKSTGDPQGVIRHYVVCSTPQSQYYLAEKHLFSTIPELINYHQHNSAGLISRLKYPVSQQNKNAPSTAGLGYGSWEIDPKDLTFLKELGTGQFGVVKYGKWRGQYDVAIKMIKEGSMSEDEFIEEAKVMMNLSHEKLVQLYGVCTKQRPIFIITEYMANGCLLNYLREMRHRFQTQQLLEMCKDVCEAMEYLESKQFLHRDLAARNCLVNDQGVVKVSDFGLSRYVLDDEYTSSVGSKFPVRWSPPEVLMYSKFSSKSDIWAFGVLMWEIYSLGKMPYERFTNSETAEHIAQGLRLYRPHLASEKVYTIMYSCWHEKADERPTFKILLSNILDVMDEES

[2] = tested on: adenosine uptake into HeLa cells; assay: [3H]Adenosine uptake assay in HeLa cells; assay type: cell-based; conditions: [3H]adenosine accumulation in HeLa cells, compound range 10 μM to 0.032 nM, read-out: ADU inhibition IC50
In short: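 IC50 came from a 4-parameter fit of counts per second over a ten-point, 1:3 titration (final 10 µM down to […]). Compound was applied 30 min at ambient temperature in HBSS/5% FBS before a 500 nM [3H]adenosine solution was added; uptake ran 60 min, read by Cytostar-T proximity scintillation.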

In the case of `C[C@](O)(c1ccc(-c2nc([C@@H]3CC[C@H]4CCC(=O)N4C3)n3ccnc(N)c23)cc1)c1cccc(N2CCOCC2)c1` [Example 67, (6R,8aS)-6-(8-amino-1-{4-[(1S)-1-hydroxy-1-(3-morpholin-4-ylphenyl)ethyl]phenyl}imidazo[1,5-a]pyrazin-3-yl)hexahydroindolizin-3(2H)-one], the pIC50 [1] was 7.81 and the pIC50 ([2]; Homo sapiens, HeLa) was 5.07.

For `C[C@](O)(c1ccc(-c2nc([C@@H]3CC[C@H]4CCC(=O)N4C3)n3ccnc(N)c23)cc1)c1ccccc1F` [Example 68, (6R,8aS)-6-(8-amino-1-{4-[(1S)-1-(2-fluorophenyl)-1-hydroxyethyl]phenyl}imidazo[1,5-a]pyrazin-3-yl)hexahydroindolizin-3(2H)-one], the pIC50 [1] was 6.34 and the pIC50 ([2]; Homo sapiens, HeLa) was 5.26.

`C[C@@](O)(c1ccc(-c2nc([C@@H]3CC[C@H]4CCC(=O)N4C3)n3ccnc(N)c23)cc1)c1ccccc1F` [Example 69, (6R,8aS)-6-(8-amino-1-{4-[(1R)-1-(2-fluorophenyl)-1-hydroxyethyl]phenyl}imidazo[1,5-a]pyrazin-3-yl)hexahydroindolizin-3(2H)-one] was tested, and the pIC50 [1] was 8.31 and the pIC50 ([2]; Homo sapiens, HeLa) was 5.19.

`C[C@](O)(c1ccc(-c2nc([C@@H]3CC[C@H]4CCC(=O)N4C3)n3ccnc(N)c23)cc1)c1cccc(C(F)F)c1` [Example 70, (6R,8aS)-6-[8-amino-1-(4-{(1S)-1-[3-(difluoromethyl)phenyl]-1-hydroxyethyl}phenyl)imidazo[1,5-a]pyrazin-3-yl]hexahydroindolizin-3(2H)-one] showed a pIC50 [1] of 7.52 and a pIC50 ([2]; Homo sapiens, HeLa) of 5.99.

Compound `C[C@@](O)(c1ccc(-c2nc([C@@H]3CC[C@H]4CCC(=O)N4C3)n3ccnc(N)c23)cc1)c1cccc(C(F)F)c1` [Example 71, (6R,8aS)-6-[8-amino-1-(4-{(1R)-1-[3-(difluoromethyl)phenyl]-1-hydroxyethyl}phenyl)imidazo[1,5-a]pyrazin-3-yl]hexahydroindolizin-3(2H)-one] has a pIC50 [1] of 9.72 and a pIC50 ([2]; Homo sapiens, HeLa) of 5.29.

With `Nc1nccn2c([C@@H]3CC[C@H]4CCC(=O)N4C3)nc(-c3ccc(C(O)c4cccc(C(F)(F)F)c4)cc3)c12` (stereo partly drawn) [Example 72, (6R,8aS)-6-[8-amino-1-(4-{hydroxy[3-(trifluoromethyl)phenyl]methyl}phenyl)imidazo [1,5-a]pyrazin-3-yl]hexahydroindolizin-3(2H)-one] the pIC50 [1] was 7.69 and the pIC50 [2] was 6.33.

For `Nc1nccn2c([C@@H]3CC[C@H]4CCC(=O)N4C3)nc(-c3ccc(C(O)c4cccc(C(F)(F)F)c4)cc3)c12` (stereo partly drawn) [Example 73, (6R,8aS)-6-[8-amino-1-(4-{hydroxy[3-(trifluoromethyl)phenyl]methyl}phenyl)imidazo [1,5-a]pyrazin-3-yl]hexahydroindolizin-3(2H)-one], the pIC50 [1] was 9.39 and the pIC50 [2] was 5.87.

Compound `CC(C)c1cccc([C@@](C)(O)c2ccc(-c3nc([C@@H]4CC[C@H]5CCC(=O)N5C4)n4ccnc(N)c34)cc2)c1` [Example 74, (6R,8aS)-6-[8-amino-1-(4-{(1S)-1-hydroxy-1-[3(1-methylethyl)phenyl]ethyl}phenyl)imidazo[1,5-a]pyrazin-3-yl]hexahydroindolizin-3(2H)-one] has a pIC50 [1] of 7.82 and a pIC50 ([2]; Homo sapiens, HeLa) of 6.33.

Work on `CC(C)c1cccc([C@](C)(O)c2ccc(-c3nc([C@@H]4CC[C@H]5CCC(=O)N5C4)n4ccnc(N)c34)cc2)c1` [Example 75, (6R,8aS)-6-[8-amino-1-(4-{(1R)-1-hydroxy-1-[3(1-methylethyl)phenyl]ethyl}phenyl)imidazo[1,5-a]pyrazin-3-yl]hexahydroindolizin-3(2H)-one] yielded a pIC50 [1] of 9.68 and a pIC50 ([2]; Homo sapiens, HeLa) of 5.70.

`CC(C)C(O)(c1ccc(-c2nc([C@@H]3CC[C@H]4CCC(=O)N4C3)n3ccnc(N)c23)cc1)c1cccc(C(F)(F)F)c1` (stereo partly drawn) [Example 76, (6R,8aS)-6-[8-amino-1-(4-{1-hydroxy-2-methyl-1-[3-(trifluoromethyl)phenyl]propyl}phenyl)imidazo [1,5-a]pyrazin-3-yl]hexahydroindolizin-3(2H)-one] showed a pIC50 [1] of 6.00 and a pIC50 ([2]; Homo sapiens, HeLa) of 5.68.
